Measurements from patent US20230399358A1, “IMMUNOGLOBULIN PURIFICATION PEPTIDES AND THEIR USE” (North Carolina State University, priority 2019, published 2023).
Entries after “also recorded” stand apart in the source; their conditions may differ. Where two headings read alike, the source gives them in different places. No end group written: not given here.

How the values were obtained:
[1] = tested on: human polyclonal IgG in CHO-S cell culture fluid; test: Static purification of IgG from CHO cell culture supernatant on peptide-Toyopearl resins, SDS-PAGE densitometry; details: for % Purity (IgG over total proteins): lane FT (flow-through); for % Purity (IgG over total eluted proteins): lane R (pH 2.5)
Experimental: (§1) Measurement of IgG binding by peptide-based chromatographic adsorbents: For initial studies, 35 mg of MWRGWQ (SEQ ID NO:2)-Toyopearl, RHLGWF (SEQ ID NO:3)-Toyopearl, WQRHGI (SEQ ID NO:1)-Toyopearl, GWLHQR (SEQ ID NO:4)-Toyopearl, and HWRGWV (SEQ ID NO:18)-Toyopearl (control) resins were equilibrated in PBS pH 7.4, reaching a swollen volume of 0.1 mL, and subsequently incubated with 1 mg/mL IgG in 0.205 mg/mL CHO cell culture supernatant for 30 minutes. The resins were subsequently washed several times with PBS to remove non-specifically bound proteins. Elution was performed with 100 mM glycine buffer pH 2.5. Flowthrough and elution fractions were collected and analyzed by SDS PAGE under reducing conditions. The resulting gels were stained with Coomassie staining. Further, 25 mg of the adsorbents MWRGWQ (SEQ ID NO:2)-Toyopearl, NIFRGWQ (SEQ ID NO:21)-Toyopearl, MWRAWQ (SEQ ID NO:5)-Toyopearl, MWRGFQ (SEQ ID NO:7)-Toyopearl, MWRGWN (SEQ ID NO:22)-Toyopearl, (NorL) WRGWQ (SEQ ID NO:23)-Toyopearl, MGRGWQ (SEQ ID NO:24)-Toyopearl, MWRWQ (SEQ ID NO:6)-Toyopearl, MWRGGQ (SEQ ID NO:26)-Toyopearl, GWRGWQ (SEQ ID NO:8)-Toyopearl, WQRHGI (SEQ ID NO:1)-Toyopearl, WNRHGI (SEQ ID NO:12)-Toyopearl, WQRAGI (SEQ ID NO:28)-Toyopearl, WQRHAI (SEQ ID NO:11)-Toyopearl, WQRHGL (SEQ ID NO:9)-Toyopearl, FQRHGI (SEQ ID NO:29)-Toyopearl, and WQRHGV (SEQ ID NO:10)-Toyopearl resins were equilibrated in PBS pH 7.4, reaching a swollen volume of 0.1 mL, and subsequently incubated with 1 mg/mL IgG in PBS at pH 7.4 for 30 minutes. The amount of unbound IgG in the supernatant samples was quantified by Bradford assay and utilized to determine the IgG binding % by the peptide variants.
Characterization of IgG-binding peptide variants WQRHGI (SEQ ID NO:1), MWRGWQ (SEQ ID NO:2), RHLGWF (SEQ ID NO:3), and GWLHQR (SEQ ID NO:4) in competitive conditions: The four selected sequence variants were tested for their ability to purify human IgG from a CHO cell culture supernatant and found largely to mirror their in silico predictions. Even though they seemed to underperform in silico, RHLGWF (SEQ ID NO:3) and GWLHQR (SEQ ID NO:4) were tested alongside WQRHGI (SEQ ID NO:1) and MWRGWQ (SEQ ID NO:2) in these conditions in order to confirm their ability to bind IgG and examine their selectivity as predicted in silico. The feedstock was prepared by spiking human polyclonal IgG into a clarified null CHO-S cell culture fluid to obtain an IgG concentration of 1 mg/mL and a CHO HCP concentration of 0.205 mg/mL. An aliquot of 500 μL was loaded onto each peptide adsorbent in static conditions for 30 min. Following a washing step with PBS to remove loosely bound proteins, a first elution step was conducted using 0.1 M glycine buffer pH 2.5 to remove all bound proteins. Flow through fractions and pH 2.5 elution fractions were loaded neat and analyzed by SDS PAGE (FIGS. 6A-6B). The values of IgG purity in the eluted fractions were determined by densitometric analysis of the corresponding lanes on the gels, and are reported in Table 9.

[2] = tested on: human polyclonal IgG in CHO-S cell culture fluid; test: as above; details: Gel B, lane E (pH 4)
human IgG [3] = details: reference [77], cited from earlier work
host cell protein (HCP) = details: literature value; cited from earlier work
IgG = details: optimized adsorbents, Menegatti et al. 2016; cited from earlier work
human IgG [4] = format: binding
Experimental: as §1
A limited library of residue-by-residue changes confirmed the importance of each residue in peptides WQRHGI (SEQ ID NO:1) and MWRGWQ (SEQ ID NO:2) in reducing the binding energy between the peptide and the IgG target. […] This was accomplished by designing and constructing an ensemble of 20 variants of peptides WQRHGI (SEQ ID NO:1) and MWRGWQ (SEQ ID NO:2). Selected residues in positions 1-6 were mutated. The peptide variants were synthesized directly on Toyopearl AF-amino-650M resin via Fmoc/tBu chemistry. The resulting adsorbents were incubated with a solution of human IgG at 2 mg/mL at a ratio of 1 mL of resin per 3.5 mL of solution for 30 min at room temperature. The residual concentration of IgG in solution was determined by Bradford concentration assay of the supernatants and utilized to calculate the amounts of bound IgG per volume of resin; Table 7 reports the % binding, defined as mg IgG bound by variant/mg IgG bound by original sequence (either WQRHGI (SEQ ID NO:1) or MWRGWQ (SEQ ID NO:2))×100%, of each sequence variant.

[5] = Solubility of free peptide in buffer (preparation for ITC); format: physicochemical
Experimental: MWRGWQ (SEQ ID NO:2) was unable to be examined via ITC. Peptide MWRGWQ (SEQ ID NO:2) was not soluble in pH 7.4 buffer, likely due to self-associative properties. MWRGWQ (SEQ ID NO:2) was found soluble in highly acidic buffer, but ITC results were confounded by the heat of mixing between acidic and neutral solutions. […] Attempts were made to raise the pH of buffer in which MWRGWQ (SEQ ID NO:2) was dissolved, but the peptide was seen to gel when the pH was raised above 5.
MWRGWQ's (SEQ ID NO:2) binding affinity could not be examined using ITC. […] However, when the peptide was dissolved in a lower pH solution, the heat of mixing between the different pH solutions was extremely high, and peptide-peptide or peptide-IgG binding energies upon titration became difficult to differentiation from the heat of mixing in ITC experiments.

[6] = tested on: human polyclonal IgG in CHO cell culture fluid; test: Chromatographic purification of IgG from CHO cell culture fluid on WorkBeads resin, SDS-PAGE densitometry; details: FIG. 8, reduced ligand density 35.2 milliequivalents/mL
Experimental: Purification of IgG from CHO Cell culture fluids using MWRGWQC (SEQ ID NO:31)- and WQRHGIC (SEQ ID NO:30)—Workbeads: A volume of 0.1 mL of resin was packed in a PEEK microbore column, installed on a Waters 2695 unit, and equilibrated with PBS, pH 7.4. All chromatographic buffers were filtered through a compatible 0.2 μm filter prior to use. A volume of 100 μL of solution of human polyclonal IgG at 1 mg/mL in a CHO cell culture fluid at 0.205 mg/mL CHO HCPs was injected in the column at 0.02 mL/min (RT: 5 minutes). Following injection, the resin was washed with PBS at 0.2 mL/min and, subsequently, with 100 mM NaCl in PBS at 0.2 mL/min. Elution was then conducted with […] pH 4. An acidic cleaning step was conducted in 0.1 M glycine pH 2.5 to remove any proteins still bound. The absorbance of the effluent was monitored by UV/Vis spectrophotometry at 280 nm. Fractions were collected and adjusted to neutral pH. Total protein concentration was measured by BCA assay. All collected fractions were also analyzed via SDS PAGE under reducing conditions. The gel was stained by silver staining, and the overall IgG purity in the eluted fractions was determined by densitometric analysis using ImageJ software. Finally, the feed and eluted fractions were analyzed using a CHO-specific ELISA kit to determine the log removal value (LRV) of HCPs.
The high purity of the recovered IgG using WQRHGI (SEQ ID NO:1), as calculated by densitometric analysis (100%) was confirmed by the HCP LRV value of 2.7, thus indicating WQRHGI (SEQ ID NO:1) has purification abilities similar to Protein A. This is a remarkable result. […] The collected chromatographic fractions were analyzed by SDS-PAGE (FIG. 7B, silver stained to highlight diluted CHO HCPs). The % values of IgG in the fractions (expressed as a ratio of IgG concentration over total protein (e.g., IgG+CHO HCPs)) were calculated by densitometric analysis of the lanes in the SDS gel and were as follows: Control (C), 0.00%; Load (L) 59.77%; Flowthrough (FT), 0.00%; Elution 1 (El1), 100.00%; Elution 2 (El2), 0.00%; IgG 93.30%. […]

[7] = molecular target: human polyclonal IgG (human); test: ITC at 25 C, peptide titrated into polyclonal IgG in PBS pH 7.4, independent single-site fit
[8] = molecular target: human polyclonal IgG (human); test: batch incubation of peptide-Toyopearl resin with human IgG, Bradford of unbound IgG; mg IgG bound relative to WQRHGI (the reference itself)
[9] = molecular target: human polyclonal IgG (human); test: breakthrough curve, 20 mg/mL IgG in PBS on a peptide-WorkBeads column, residence time 2 min
[10] = molecular target: human polyclonal IgG (human); test: breakthrough curve, 20 mg/mL IgG in PBS on a peptide-WorkBeads column, residence time 5 min
[11] = molecular target: human polyclonal IgG (human); test: batch adsorption isotherm of IgG on peptide-WorkBeads resin, BCA of unbound IgG, Langmuir fit
[12] = molecular target: human polyclonal IgG (human); test: batch adsorption isotherm of IgG on peptide-WorkBeads resin, BCA of unbound IgG, Langmuir fit (KD(Solid))
[13] = molecular target: human polyclonal IgG (human); test: batch incubation of peptide-Toyopearl resin with human IgG, Bradford of unbound IgG; mg IgG bound relative to MWRGWQ (the reference itself)

GWLHQR
% Purity (IgG over total proteins) ([1]; Gel B): 57.02%
% Purity (IgG over total eluted proteins) ([1]; Gel B): 0.00%
IgG yield ([1]; competitive conditions, CHO cell culture supernatant): lower than expected IgG yields; also recorded: lower IgG yield
% Purity (IgG over total eluted proteins) [2]: 100%

HWRGWV [reference compound]
% Purity (IgG over total proteins) ([1]; Gel A): 100.00%
% Purity (IgG over total eluted proteins) ([1]; Gel A): 97.81%
% Purity (IgG over total proteins) ([1]; Gel B): 45.40%
% Purity (IgG over total eluted proteins) ([1]; Gel B): 93.79%
DBC at 10% breakthrough (human IgG [3]; residence time 2 min): 25 mg IgG/mL resin
DBC at 10% breakthrough (human IgG [3]; residence time 5 min): 36 mg IgG/mL resin
HCP LRV (host cell protein (HCP)): 1.6
binding capacity (IgG): up to 91.5 mg of IgG per mL of adsorbent

MWRGWQ [MWRGWQ]
% Binding (mg IgG bound by variant/mg IgG bound by original sequence × 100%) (human IgG [4]): 100.00%
solubility ([5]; highly acidic buffer / lower pH): soluble; also recorded: could be dissolved
solubility ([5]; pH 7.4 buffer / neutral pH): not soluble; also recorded: tended to gel

Protein A: Protein A adsorbent, industrial standard for mAb capture
% Purity (IgG over total protein) ([6]; elution lane (pH 4)): 100.00%
% Purity (IgG over total protein) ([6]; lane FT): 55.74%
HCP LRV (host cell protein (HCP)): 2.5-3.0

WQRHGI [WQRHGI (SEQ ID NO:1)]
Kd [7]: 58.8 µM
stoichiometry (N, interacting peptides per IgG) (peptides per IgG) [7]: 10
% Binding [8]: 100%

WQRHGIC(iodoacetyl‑activated TREN WorkBeads resin) (not fully specified) [WQRHGIC (SEQ ID NO:30)-WorkBeads]
DBC (dynamic binding capacity at 10% breakthrough) (mg IgG/mL resin) [9]: 33.6
DBC (dynamic binding capacity at 10% breakthrough) (mg IgG/mL resin) [10]: 43.8
Qmax (mg IgG/mL resin) [11]: 52.6
Kd [12]: 3.2 µM

MWRGWQC(iodoacetyl‑activated TREN WorkBeads resin) (not fully specified) [MWRGWQC (SEQ ID NO:31)-WorkBeads]
DBC (dynamic binding capacity at 10% breakthrough) (mg IgG/mL resin) [9]: 44
DBC (dynamic binding capacity at 10% breakthrough) (mg IgG/mL resin) [10]: 55.3
Qmax (mg IgG/mL resin) [11]: 57.5
Kd [12]: 8.1 µM

MWRGWQ [MWRGWQ (SEQ ID NO:2)]
% Binding [13]: 100%
